Legend:
[1] = system: U-46619 induced airway resistance increase; test: Inhibition of U-46619 induced airway resistance increase in guinea pig by oral administration (Test (3)); type: in vivo, guinea pig (male Hartley); conditions: 10 mg/kg oral, 1 hour before U-46619 (3 μg/kg i.v.)
Protocol: (3) Test Method for the Inhibition of U-46619 Induced Airway Resistance Increase in Guinea Pig by Oral Administration of Compounds
A male Hartley guinea pig (500 to 800 g) was anesthetized with urethane (1.2 g/kg, i.p.) and fixed on the back to insert a tracheal cannula. Spontaneous respiration was stopped with gallamine (1 mg/kg, i.v.) and artificial respiration was carried out at a rate of 60 strokes/min, volume 1 ml/100 g body weight/cycle. After total jugular intravenous administration of U-46619 (3 μg/kg), the increasing airway resistance was measured by a respiration function measuring apparatus (Model 6, Buxco Electronics Inc.). In this case, test compound was orally administered 1 hour before the administration of U-46619, as a dimethyl sulfoxide solution or as a methyl cellulose suspension.
The results were calculated as the inhibition ratio of airway resistance at the time of the administration of 10 mg/kg of the compound.

[2] = system: LTD4-induced vascular permeability acceleration; test: Inhibition of LTD4-induced vascular permeability acceleration by oral administration (Test (4)); type: in vivo, guinea pig (male Hartley); conditions: 10 mg/kg oral, 1 hour before LTD4 (5 ng/site intracutaneous); dimethyl sulfoxide solution (DMSO)
Protocol: (4) Test Method for the Inhibition of LTD4 -Induced Vascular Permeability Acceleration by Oral Administration of Compounds
A male Hartley guinea pig whose dorsal hair had been cut on the day before the test was subjected to intravenous administration of 1% Evans blue aqueous solution (1 ml/animal). Two minutes thereafter, LTD4 (5 ng/site) was administered inside the dorsal skin of the guinea pig, and the guinea pig was sacrificed by decapitation 30 minutes thereafter. The skin where intracutaneous injection of LTD4 was carried out was collected, and the pigment leaked into the skin was extracted. Amount of the leaked pigment was calculated by measuring its absorbance at 620 nm and used as the index of vascular permeability. The test compound was orally administered as a dimethyl sulfoxide solution 1 hour before the intracutaneous administration of LTD4. The results were calculated as the inhibition ratio at the time of the administration of 10 mg/kg of the compound.

[3] = system: ileal contraction by LTD4; test: Inhibition of ileal contraction by LTD4 in guinea pig (Test (2)); set-up: species or system guinea pig (male Hartley); conditions: guinea pig ileum, LTD4 10^-9 M; compound incubation 20 minutes
Protocol: (2) Test Method for the Inhibition of Ileal Contraction by LTD4 in Guinea Pig
A male Hartley guinea pig of 500 to 700 g in body weight was sacrificed by head blow. The ileum was set in a Magnus vessel containing 10 ml of Tyrode solution aerated with a 95% O2 +5% CO2 mixture gas at a tension of 1.0 g. The tension generated by the tissue was isometrically measured using a threton gage transducer. Ileal contraction reaction against LTD4 (10^-9 M) was measured in the absence of the compound and then in the presence of the test compound in varied concentrations. Incubation time of the compound was set to 20 minutes.

[4] = system: platelet aggregation induced by U-46619 (stable analog of TXA2); test: Inhibition of platelet aggregation induced by U-46619 (Test (1)); type: cell-based, guinea pig (male Hartley); conditions: Cavia porcellus; guinea pig PRP, platelet count 500,000/μl; compound added 2 minutes before U-46619
Protocol: (1) Test Method for the Inhibition of Platelet Aggregation Induced by U-46619
Using a plastic syringe containing 1 volume of 3.8% sodium citrate aqueous solution, 9 volumes of blood was collected from the abdominal aorta of a male Hartley guinea pig of about 800 g in body weight. Platelet rich plasma (PRP) was obtained by subjecting the blood to 10 minutes of centrifugation at 270×g, and the remaining blood was further centrifuged at 1,100×g for 10 minutes to give platelet poor plasma (PPP). The PRP was diluted with PPP to control the platelet count to 500,000/μl, and platelet aggregation by a stable analog of TXA2, U-46619 (a chemical name: 9,11-dideoxy-9α,11α-methanoepoxy-prostaglandin F2 α), was measured in accordance with the method of Bone and Cross (Journal of Physiology, vol.168, pp.178-195, 1963).
That is, changes in the light transmittance of PRP by U-46619 (10^-6 […]) was measured using NBS Hematracer. The compound was added 2 minutes before the addition of U-46619, and the IC50 value (50% inhibition concentration) was calculated from the inhibition ratio based on the maximum light transmittance by U-46619.

[5] = dimethyl sulfoxide solution (DMSO)

Compound | Test (3) Inhibition ratio [1, 5] [%] | Test (3) Inhibition ratio ([1]; methyl cellulose suspension (MC)) [%] | Test (4) Inhibition ratio [2] [%] | IC50 [3] [nM] | IC50 [4] [nM]
O=C(O)COc1ccc(CCCS(=O)(=O)c2ccc(Cl)cc2)cc1NC(=O)c1cccc(OCc2ccc3ccccc3n2)c1 [Comparative compound] | 27 | 21 | 35 | – | –
CCOC(=O)COc1ccc(CCCS(=O)(=O)c2ccc(Cl)cc2)cc1NC(=O)c1cccc(OCc2nc(C(C)(C)C)cs2)c1 [Example 6, Ethyl 2-[3-[(4-tert-butyl-2-thiazolyl)methoxy]benzoylamino]-4-[3-(4-chlorophenylsulfonyl)propyl]phenoxyacetate] | – | – | – | 0.81 | 450
CC(C)(C)c1csc(COc2cccc(C(=O)Nc3cc(CCCS(=O)(=O)c4ccc(Cl)cc4)ccc3OCC(=O)O)c2)n1 [Example 13, 2-[3-[(4-tert-Butyl-2-thiazolyl)methoxy]benzoylamino]-4-[3-(4-chlorophenylsulfonyl)propyl]phenoxyacetic acid] | – | – | – | 0.45 | 55
CCOC(=O)COc1ccc(CCCS(=O)(=O)c2ccc(Cl)cc2)cc1NC(=O)c1cccc(OCc2nc(C3CC3)cs2)c1 [Example 15, Ethyl 4-[3-(4-chlorophenylsulfonyl)propyl]-2-[3-[(4-cyclopropyl-2-thiazolyl]methoxy]benzoylamino]phenoxyacetate] | – | – | – | 0.85 | 63
O=C(O)COc1ccc(CCCS(=O)(=O)c2ccc(Cl)cc2)cc1NC(=O)c1cccc(OCc2nc(C3CC3)cs2)c1 [Example 26, 4-[3-(4-Chlorophenylsulfonyl)propyl]-2-[3-[(4-cyclopropyl-2-thiazolyl)methoxy]benzoylamino]phenoxyacetic acid] | – | – | – | 0.54 | 79
CC(C)(C)c1csc(CSc2cccc(C(=O)Nc3cc(CCCS(=O)(=O)c4ccc(Cl)cc4)ccc3OCC(=O)O)c2)n1 [Example 27, 2-[3-[(4-tert-Butyl-2-thiazolyl)methylthio]benzoylamino]-4-[3-(4-chlorophenylsulfonyl)propyl]phenoxyacetic acid] | – | – | – | 0.67 | 210
CC(C)(C)c1csc(CCc2cccc(C(=O)Nc3cc(CCCS(=O)(=O)c4ccc(Cl)cc4)ccc3OCC(=O)O)c2)n1 [Example 28, 2-[3-[2-(4-tert-Butyl-2-thiazolyl)ethyl]benzoylamino]-4-[3-(4-chlorophenylsulfonyl)propyl]phenoxyacetic acid] | – | – | – | 0.98 | 74
O=C(O)COc1ccc(CCCS(=O)(=O)c2ccc(Cl)cc2)cc1NC(=O)c1cccc(OCc2nc(C3CCCCC3)cs2)c1 [Example 29, 4-[3-(4-Chlorophenylsulfonyl)propyl]-2-[3-[(4-cyclohexyl-2-thiazolyl)methoxy]benzoylamino]phenoxyacetic acid] | – | – | – | 0.61 | 110
O=C(O)COc1ccc(CCCS(=O)(=O)c2ccc(Cl)cc2)cc1NC(=O)c1cccc(OCc2nc(C3CCC3)cs2)c1 [Example 31, 4-[3-(4-Chlorophenylsulfonyl)propyl]-2-[3-[(4-cyclobutyl-2-thiazolyl)methoxy]benzoylamino]phenoxyacetic acid] | 72 | – | 40 | 0.28 | 130
CC(C)(C)c1csc(COc2cccc(C(=O)Nc3cc(CCCS(=O)(=O)c4ccc(Cl)cc4)ccc3OCc3nnn[nH]3)c2)n1 [Example 39, 3-[(4-tert-Butyl-2-thiazolyl)methoxy]-5'-[3-(4-chlorophenylsulfonyl)propyl]-2'-(1H-tetrazol-5-ylmethoxy)benzanilide] | – | – | – | 0.57 | 220
Cc1oc(=O)oc1COC(=O)COc1ccc(CCCS(=O)(=O)c2ccc(Cl)cc2)cc1NC(=O)c1cccc(OCc2nc(C(C)(C)C)cs2)c1 [Example 42, (5-methyl-2-oxo-1,3-dioxol-4-yl)methyl=2-[3-[(4-tert-butyl-2-thiazolyl)methoxy]benzoylamino]-4-[3-(4-chlorophenylsulfonyl)propyl]phenoxyacetic acid] | – | – | – | 0.93 | 420
O=C(Nc1cc(CCCS(=O)(=O)c2ccc(Cl)cc2)ccc1OCc1nnn[nH]1)c1cccc(OCc2nc(C3CCC3)cs2)c1 [Example 74, 5'-[3-(4-Chlorophenylsulfonyl)propyl]-3-[(4-cyclobutyl-2-thiazolyl)methoxy]-2'-(1H-tetrazol-5-ylmethoxy)benzanilide] | – | – | – | 0.24 | 540
CC(C)(C)c1csc(COc2cccc(C(=O)Nc3cc(CCCS(=O)(=O)c4ccc(Cl)cc4)ccc3OC(F)C(=O)O)c2)n1 (centres unmarked) [Example 79, 2-[2-[3-[(4-tert-butyl-2-thiazolyl)methoxy]benzoylamino]-4-[3-(4-chlorophenylsulfonyl)propyl]phenoxy]-2-fluoroacetic acid hydrate] | – | – | – | 4.2 | 890
O=C(O)CNC(=O)COc1ccc(CCCS(=O)(=O)c2ccc(Cl)cc2)cc1NC(=O)c1cccc(OCc2nc3ccccc3s2)c1 [Example 106, N-[[2-[3-(2-Benzothiazolylmethoxy)benzoylamino]-4-[3-(4-chlorophenylsulfonyl)propyl]phenoxy]acetyl]glycine] | – | – | – | 0.92 | 1200
CS(=O)(=O)NC(=O)COc1ccc(CCCS(=O)(=O)c2ccc(Cl)cc2)cc1NC(=O)c1cccc(OCc2nc3ccccc3s2)c1 [Example 107, 2-[2-[3-(2-benzothiazolylmethoxy)benzoylamino]-4-[3-(4-chlorophenylsulfonyl)propyl]phenoxy]-N-(methanesulfonyl)acetamide 0.5 hydrate] | – | – | – | 3.7 | 670
O=C(Nc1cc(CCCS(=O)(=O)c2ccc(Cl)cc2)ccc1OCc1nnn[nH]1)c1cccc(OCc2nc3ccccc3s2)c1 [Example 111, 3-(2-benzothiazolylmethoxy)-5'-[3-(4-chlorophenylsulfonyl)propyl]-2'-(1H-tetrazol-5-ylmethoxy)benzanilide] | – | – | – | 0.26 | 380
